Tests used:
[1] = tested on: PKG-1α; assay: PKG-1α nitration (IP, 3-NT blot) in transfected HEK-293T cells; type: cell-based, human; details: HEK-293T expressing Y247F- or Y425F-PKG-1α, SIN-1 500 μM 30 min
Experimental: (§1) Cells were homogenized in 3× weight/volume of IP buffer (25 mM Hepes, pH 7.5, 150 mM NaCl, 1% NP-40, 10 mM MgCl2, 1 mM EDTA, 2% glycerol, supplemented with protease inhibitor). The homogenates were then centrifuged at 20,000 g at 4° C. for 20 min, the supernatant was collected, and the protein concentration was quantified by the Bio-Rad DC Protein Assay. To 1000 μg of total protein, 4 μg of antibody against PKG-1α was added; the volume was brought to 1 ml with IP buffer, and the mixture was nutated at 4° C. overnight. To precipitate the bound protein, 30 μl of protein G plus agarose suspension (EMD biosciences, Inc., San Diego, Calif.) was added, and the samples were nutated for 2 h at 4° C. To collect the bead-bound antibody, the samples were then centrifuged at 2000 g for 5 min at 4° C., the supernatant was removed, and the beads were washed 3× with 500 μl of IP buffer. […]
(§2) To determine the role of tyrosine 247 and tyrosine 425 in mediating the nitration dependent inhibition of PKG-1α kinase activity, Y247F- and Y425F-PKG-1α mutants were generated and expressed in HEK-293T cells. […] Protein extracts were immunoprecipitated using an antibody raised against PKG-1α and the level of nitrated PKG-1α determined by probing the membranes with an antiserum raised against 3-NT. […]

[2] = molecular target: T1, PKG-1α (Homo sapiens, UniProt Q13976); assay: as above; type: cell-based; details: HEK-293T expressing WT-PKG-1α, SIN-1 500 μM 30 min
T1 construct: transfected with an expression plasmid containing a full length WT-PKG-1α cDNA; made in house; host or cells: HEK-293T (methods); the results paragraph b527 says PASMC
T1 sequence (Q13976 2-671): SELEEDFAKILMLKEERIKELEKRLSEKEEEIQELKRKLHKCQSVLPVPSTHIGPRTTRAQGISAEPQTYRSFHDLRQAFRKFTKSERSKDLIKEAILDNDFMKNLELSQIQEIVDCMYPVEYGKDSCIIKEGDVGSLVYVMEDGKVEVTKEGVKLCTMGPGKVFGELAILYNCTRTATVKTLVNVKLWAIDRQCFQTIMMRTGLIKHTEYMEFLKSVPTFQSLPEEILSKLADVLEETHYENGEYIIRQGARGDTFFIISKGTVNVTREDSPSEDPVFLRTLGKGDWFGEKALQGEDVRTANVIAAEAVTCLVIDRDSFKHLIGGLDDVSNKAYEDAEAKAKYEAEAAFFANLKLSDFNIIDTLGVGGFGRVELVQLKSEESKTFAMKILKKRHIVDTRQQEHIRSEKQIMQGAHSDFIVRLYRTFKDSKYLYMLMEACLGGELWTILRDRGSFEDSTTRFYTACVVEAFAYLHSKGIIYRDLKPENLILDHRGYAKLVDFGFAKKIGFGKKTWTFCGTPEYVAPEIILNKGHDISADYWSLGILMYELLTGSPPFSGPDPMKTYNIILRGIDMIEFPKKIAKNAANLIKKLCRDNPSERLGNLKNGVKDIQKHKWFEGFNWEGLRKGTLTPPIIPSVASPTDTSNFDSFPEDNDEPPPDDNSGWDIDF
Experimental: as §1, §2

[3] = molecular target: T1, PKG-1α; assay: PKG protein levels and PKG activity in transfected PASMC; type: cell-based; details: PASMC transfected with WT-PKG-1α, SIN-1 500 μM 48 h
Experimental: Therefore, the effect of these events were investigated in PASMC transiently transfected with expression plasmids containing WT- and Y247F-PKG-1α. The effect of nitration on pulmonary arterial smooth muscle cell (PASMC) growth and metabolism was determined. PASMC were transiently transfected with expression plasmids containing WT-PKG-1α, Y247F-PKG-1α or pDEST40 (as a control) for 20 h. Cells were then exposed or not to SIN-1 (500 μM, 48 h) and the effect on PKG protein levels (FIG. 17A) and activity determined (FIG. 17B).
Cells were prepared as previously described (Sud, N., et al., American Journal of Physiology 293, L1444-1453 (2007); Sharma, S., et al., American Journal of Physiology 294, L46-56 (2008)). Briefly, the cellular protein extracts were prepared by homogenizing the cells in lysis buffer (50 mM Tris-HCl, pH 7.6, 0.5% Triton X-100, and 20% glycerol) containing Halt protease inhibitor cocktail (Pierce, Rockford, Ill.). The extracts were then clarified by centrifugation (20,000 g for 20 min at 4° C.). […] Reactive bands were visualized using chemi-luminescence (Pierce Laboratories, Rockford, Ill.) on a Kodak 440CF image station. The band intensity was quantified using Kodak 1D image processing software. […]
Measurement of PKG Catalytic Activity Total PKG activity was determined using a non-radioactive immunoassay in cell lysates, according to the manufacturer's directions. […]

3-morpholinosydnonimine N-ethylcarbamide [SIN-1]
Nitration levels of Y247F- or Y425F-PKG-1α [1]: no significant increases | Nitration of WT-PKG-1α [2]: significantly increased | cGMP dependent increase in PKG activity, WT-PKG-1α cells [3]: attenuated

— patent US9447157B2, “Nitration shielding peptides and methods of use thereof” (Augusta University Research Institute, Inc., priority 2013, dated 2016)
